SMILES strings stand for the structures. Where a name gives a salt, the structure may show the parent alone.

The experiment deals with T1, human full-length MKNK1 (Homo sapiens, UniProt Q9BUB5, T385D).
T1 construct: purchased Carna Biosciences 02-145; host or cells: insect cells, baculovirus expression system
T1 sequence (Q9BUB5 1-424 isoform Q9BUB5-2 T344D): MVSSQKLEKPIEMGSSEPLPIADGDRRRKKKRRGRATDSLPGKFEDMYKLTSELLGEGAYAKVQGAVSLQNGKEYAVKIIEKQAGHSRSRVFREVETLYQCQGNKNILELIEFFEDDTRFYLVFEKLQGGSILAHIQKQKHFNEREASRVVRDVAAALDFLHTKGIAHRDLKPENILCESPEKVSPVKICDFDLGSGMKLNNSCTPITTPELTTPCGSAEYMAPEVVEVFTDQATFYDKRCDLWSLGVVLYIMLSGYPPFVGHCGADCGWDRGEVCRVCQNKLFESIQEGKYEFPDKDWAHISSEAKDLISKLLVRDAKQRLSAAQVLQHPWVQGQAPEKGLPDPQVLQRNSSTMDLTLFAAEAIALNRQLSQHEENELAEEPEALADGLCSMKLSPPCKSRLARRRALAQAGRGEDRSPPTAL
The experiment can be described thus: MKNK1 kinase high ATP assay (TR-FRET). The experiment is classed as biochemical. Conditions: high ATP (2 mM), 15 min preincubation with enzyme, GST-MKNK1 (T344D). The gist of the method:
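GST-tagged full-length human MKNK1 (aa 1-424, T344D), baculovirus-expressed, preincubated 15 min with compound, then reacted 30 min at 22 °C with 2 mM ATP and 0.06 µM biotinylated peptide (final).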
A general note: Time-resolved FRET reads energy transfer from a long-lived donor to a nearby acceptor.
Consider `CC(C)COc1ccccc1Nc1ncnc2[nH]c3c(c12)CC(C(=O)NCCCS(C)(=O)=O)CC3` (racemic) [Example 153, (RS)-4-{[2-(2-Methylpropoxy)phenyl]amino}-N-[3-(methylsulfonyl)propyl]-6,7,8,9-tetrahydro-5H-pyrimido[4,5-b]indole-6-carboxamide], for which the IC50 was 193 nM.

The compound `COc1ccc(C(F)(F)F)cc1Nc1ncnc2[nH]c3c(c12)CCCC3` [Example 119] registered an IC50 not below 20000 nM.

As to `COc1ccc(C(F)(F)F)cc1Nc1ncnc2[nH]c3c(c12)CC(C(=O)O)CC3` (racemic) [Example 103, (RS)-4-{[2-Methoxy-5-(trifluoromethyl)phenyl]amino}-6,7,8,9-tetrahydro-5H-pyrimido[4,5-b]indole-6-carboxylic acid], inhibition was half-maximal at 400 nM (IC50).

For `O=C(O)CNC(=O)C1CCc2[nH]c3ncnc(Nc4ccc(F)cc4OCCO)c3c2C1` (racemic) [Example 187, (RS)—N-[(4-{[4-Fluoro-2-(2-hydroxyethoxy)phenyl]amino}-6,7,8,9-tetrahydro-5H-pyrimido[4,5-b]indol-6-yl)carbonyl]glycine], the IC50 is 123 nM.

For `CS(=O)(=O)CCCNC(=O)C1CCc2[nH]c3ncnc(Nc4ccc5c(c4)C(=O)OC5)c3c2C1` (racemic) [Example 46, (RS)—N-[3-(Methylsulfonyl)propyl]-4-[(3-oxo-1,3-dihydro-2-benzofuran-5-yl)amino]-6,7,8,9-tetrahydro-5H-pyrimido[4,5-b]indole-6-carboxamide], the IC50 was 2240 nM.

Compound `COc1cccc(Nc2ncnc3[nH]c4c(c23)CC(C(=O)NCCCS(C)(=O)=O)CC4)c1OC` (racemic) [Example 74, (RS)-4-[(2,3-Dimethoxyphenyl)amino]-N-[3-(methylsulfonyl)propyl]-6,7,8,9-tetrahydro-5H-pyrimido[4,5-b]indole-6-carboxamide] showed an IC50 of 1160 nM.

Take `CC(C)Oc1cc(F)ccc1Nc1ncnc2[nH]c3c(c12)CCC3` [Example 70, N-(4-Fluoro-2-isopropoxyphenyl)-5,6,7,8-tetrahydrocyclopenta[4,5]pyrrolo[2,3-d]pyrimidin-4-amine]: inhibition was half-maximal at 48 nM (IC50).

`CCOC(=O)C1CCc2[nH]c3ncnc(Nc4ccc(F)cc4OCCO)c3c2C1` (racemic) [Example 176, (RS)-Ethyl 4-{[4-fluoro-2-(2-hydroxyethoxy)phenyl]amino}-6,7,8,9-tetrahydro-5H-pyrimido[4,5-b]indole-6-carboxylate] had an IC50 of 174 nM.

`CC(C)Oc1cc(F)ccc1Nc1ncnc2c1c1c(n2C)CCC(C(=O)NCCCS(C)(=O)=O)C1` (racemic) [Example 25, (RS)-4-[(4-Fluoro-2-isopropoxyphenyl)amino]-9-methyl-N-[3-(methylsulfonyl)propyl]-6,7,8,9-tetrahydro-5H-pyrimido[4,5-b]indole-6-carboxamide] had an IC50 of 381 nM.

`COc1ccc(C(F)(F)F)cc1Nc1ncnc2[nH]c3c(c12)CC(C(=O)NCCCS(C)(=O)=O)CC3` (racemic) [Example 67, (RS)-4-{[2-Methoxy-5-(trifluoromethyl)phenyl]amino}-N-[3-(methylsulfonyl)propyl]-6,7,8,9-tetrahydro-5H-pyrimido[4,5-b]indole-6-carboxamide] yielded an IC50 of 28 nM.

In turn, `CC(C)NC(=O)C1CCc2[nH]c3ncnc(Nc4ccc5[nH]ncc5c4)c3c2C1` (racemic) [Example 227, (RS)-4-(1H-Indazol-5-ylamino)-N-(propan-2-yl)-6,7,8,9-tetrahydro-5H-pyrimido[4,5-b]indole-6-carboxamide] returned an IC50 of 24 nM.

For the compound `COc1cc2[nH]ncc2cc1Nc1ncnc2[nH]c3c(c12)CCCC3` [Example 112], half-maximal inhibition (IC50) required 6 nM.

`O=C(O)C1CCc2[nH]c3ncnc(Nc4ccccc4OC4CCCC4)c3c2C1` (racemic) [Example 180, (RS)-4-{[2-(Cyclopentyloxy)phenyl]amino}-6,7,8,9-tetrahydro-5H-pyrimido[4,5-b]indole-6-carboxylic acid]: the IC50 was 2890 nM.

The compound `COCC1(OC)CCc2[nH]c3ncnc(Nc4ccc5[nH]ncc5c4)c3c2C1` (racemic) [Example 135] registered an IC50 of 167 nM.

Regarding `O=C(O)C1CCc2[nH]c3ncnc(Nc4ccc(Cl)c(Cl)c4)c3c2C1` (racemic) [Example 233, (RS)-4-[(3,4-Dichlorophenyl)amino]-6,7,8,9-tetrahydro-5H-pyrimido[4,5-b]indole-6-carboxylic acid], the IC50 stood at 149 nM.

`COCC1(OC)CCc2[nH]c3ncnc(Nc4cc5[nH]c(=O)[nH]c5cc4Cl)c3c2C1` (racemic) [Example 131] came in with an IC50 of 5700 nM.

Turning to `COc1ccc(Cl)cc1Nc1ncnc2[nH]c3c(c12)CC(C(=O)O)CC3` (racemic) [Example 235, (RS)-4-[(5-Chloro-2-methoxyphenyl)amino]-6,7,8,9-tetrahydro-5H-pyrimido[4,5-b]indole-6-carboxylic acid], the IC50 amounted to 159 nM.

Compound `COc1cc2[nH]ncc2cc1Nc1ncnc2[nH]c3c(c12)CC(C(=O)O)CC3` (racemic) [Example 184, (RS)-4-[(6-Methoxy-1H-indazol-5-yl)amino]-6,7,8,9-tetrahydro-5H-pyrimido[4,5-b]indole-6-carboxylic acid hydrochloride (1:1)] showed an IC50 of 26 nM.

In turn, `CS(=O)(=O)CCCNC(=O)C1CCc2[nH]c3ncnc(Nc4ccccc4OC(F)(F)F)c3c2C1` (racemic) [Example 32, (RS)—N-[3-(Methylsulfonyl)propyl]-4-{[2-(trifluoromethoxy)phenyl]amino}-6,7,8,9-tetrahydro-5H-pyrimido[4,5-b]indole-6-carboxamide] showed an IC50 of 746 nM.

Compound `CC(C)Oc1cc(F)ccc1Nc1ncnc2[nH]c3c(c12)CCCCC3` [Example 4, N-(4-Fluoro-2-isopropoxyphenyl)-5,6,7,8,9,10-hexahydrocyclohepta[4,5]pyrrolo[2,3-d]pyrimidin-4-amine] came in with an IC50 of 258 nM.

Take `O=[N+]([O-])c1ccc2c(c1)CCN2c1ncnc2[nH]c3c(c12)CCCC3` [Example 123]: 1550 nM corresponded to half-maximal inhibition (IC50).

As for `CC(C)Oc1ccc(Cl)cc1Nc1ncnc2[nH]c3c(c12)CCCC3` [Example 124], the IC50 was 1740 nM.

`Cn1c2c(c3c(Nc4ccc5[nH]ncc5c4)ncnc31)CC(C(=O)NCCCS(C)(=O)=O)CC2` (racemic) [Example 26, (RS)-4-(1H-Indazol-5-ylamino)-9-methyl-N-[3-(methylsulfonyl)propyl]-6,7,8,9-tetrahydro-5H-pyrimido[4,5-b]indole-6-carboxamide]: inhibition was half-maximal at 1740 nM (IC50).

`COc1ccc(F)cc1Nc1ncnc2[nH]c3c(c12)CC(C(=O)NCc1ccccc1)CC3` (racemic) [Example 200, (RS)—N-Benzyl-4-[(5-fluoro-2-methoxyphenyl)amino]-6,7,8,9-tetrahydro-5H-pyrimido[4,5-b]indole-6-carboxamide]: the IC50 turned out to be 100 nM.

Compound `CS(=O)(=O)CCCNC(=O)C1CCc2[nH]c3ncnc(Nc4cccc(-n5cnnn5)c4)c3c2C1` (racemic) [Example 47, (RS)—N-[3-(Methylsulfonyl)propyl]-4-{[3-(1H-tetrazol-1-yl)phenyl]amino}-6,7,8,9-tetrahydro-5H-pyrimido[4,5-b]indole-6-carboxamide] came in with an IC50 of 1310 nM.

The compound `CN1CCN(C(=O)C2CCc3[nH]c4ncnc(Nc5ccc6[nH]c(=O)sc6c5)c4c3C2)CC1` (racemic) [Example 222, (RS)-6-({6-[(4-Methylpiperazin-1-yl)carbonyl]-6,7,8,9-tetrahydro-5H-pyrimido[4,5-b]indol-4-yl}amino)-1,3-benzothiazol-2(3H)-one] returned an IC50 of 25 nM.

Consider `CC(C)Oc1ccc(Cl)cc1Nc1ncnc2[nH]c3c(c12)CC(F)(F)CC3` [Example 143], for which the IC50 worked out at 407 nM.

As to `COc1ccc(OC)c(Nc2ncnc3[nH]c4c(c23)CC(C(=O)NCCCS(C)(=O)=O)CC4)c1` (racemic) [Example 42, (RS)-4-[(2,5-Dimethoxyphenyl)amino]-N-[3-(methylsulfonyl)propyl]-6,7,8,9-tetrahydro-5H-pyrimido[4,5-b]indole-6-carboxamide], half-maximal inhibition (IC50) was put at 615 nM.

The compound `c1nc(Nc2ccc3[nH]ncc3c2)c2c3c([nH]c2n1)CCCCC3` [Example 3, N-(1H-Indazol-5-yl)-5,6,7,8,9,10-hexahydrocyclohepta[4,5]pyrrolo[2,3-d]pyrimidin-4-amine] registered an IC50 of 45 nM.

`CC(C)NC(=O)C1CCc2[nH]c3ncnc(Nc4ccccc4N4CCOCC4)c3c2C1` (racemic) [Example 202, (RS)-4-{[2-(Morpholin-4-yl)phenyl]amino}-N-(propan-2-yl)-6,7,8,9-tetrahydro-5H-pyrimido[4,5-b]indole-6-carboxamide] had an IC50 of 267 nM.

On to `CS(=O)(=O)CCCNC(=O)C1CCc2[nH]c3ncnc(Sc4ccc5[nH]ncc5c4)c3c2C1` (racemic) [Example 146, (RS)-4-(1H-Indazol-5-ylsulfanyl)-N-[3-(methylsulfonyl)propyl]-6,7,8,9-tetrahydro-5H-pyrimido[4,5-b]indole-6-carboxamide], for which half-maximal inhibition (IC50) was put at 1130 nM.

The compound `CS(=O)(=O)CCCNC(=O)C1CCc2[nH]c3ncnc(Nc4ccccc4OC4CCCC4)c3c2C1` (racemic) [Example 78, (RS)-4-{[2-(Cyclopentyloxy)phenyl]amino}-N-[3-(methylsulfonyl)propyl]-6,7,8,9-tetrahydro-5H-pyrimido[4,5-b]indole-6-carboxamide] had an IC50 of 24 nM.

In turn, `CS(=O)(=O)CCCNC(=O)C1CCc2[nH]c3ncnc(Nc4cccc5c4OC(F)(F)O5)c3c2C1` (racemic) [Example 60, (RS)-4-[(2,2-Difluoro-1,3-benzodioxol-4-yl)amino]-N-[3-(methylsulfonyl)propyl]-6,7,8,9-tetrahydro-5H-pyrimido[4,5-b]indole-6-carboxamide] came in with an IC50 of 1360 nM.

For `CS(=O)(=O)CCCNC(=O)C1CCc2[nH]c3ncnc(Nc4ccc5[nH]c(=S)sc5c4)c3c2C1` (racemic) [Example 155, (RS)—N-[3-(Methylsulfonyl)propyl]-4-[(2-thioxo-2,3-dihydro-1,3-benzothiazol-6-yl)amino]-6,7,8,9-tetrahydro-5H-pyrimido[4,5-b]indole-6-carboxamide], it took 504 nM to reach half-maximal inhibition (IC50).

Usually IC50 stands for the concentration at which inhibition is half-maximal. A low value points to inhibition by little substance.

These data come from patent US20150133426A1, “SUBSTITUTED PYRROLOPYRIMIDINES” (BAYER PHARMA AKTIENGESELLSCHAFT, priority 2012, published 2015).
